In patent US20250230138A1, “COMPOUNDS HAVING A T-STRUCTURE FORMED BY AT LEAST FOUR CYCLES FOR USE IN THE TREATMENT OF CANCER AND OTHER INDICATIONS” (TheRas, Inc., priority 2022, published 2025):
Read-outs that look alike come from different tables or passages of the source.

Columns and labels:
pAKT in BT474 cells = experiment: Cell-based pAKT HTRF assay in BT474 cells; conditions: BT474 cells, 4 hr incubation, Compounds 10-999, read-out: pAKT inhibition IC50 in BT474 cells
In short: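 Cells grown in DMEM with 10% FBS were exposed to compounds for 4 hr in 0.25% DMSO, using a 9-point, 3-fold dilution series that starts at 3 μM. Lysates were incubated with d2 and Eu Cryptate antibodies for 4–24 h at room temperature, and HTRF was read at 615 nm emission.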

[1] = target: Cys242 in human PIK3CA (157-299) (Homo sapiens (Human), UniProt P42336); experiment: Covalent modification assay using MALDI-TOF MS; type: biochemical; conditions: 4 h reaction time point; 3.33 μM protein target, 1:7.5 protein to compound ratio (compounds 1-852)
Chain of Cys242 in human PIK3CA (157-299) (P42336 157-299): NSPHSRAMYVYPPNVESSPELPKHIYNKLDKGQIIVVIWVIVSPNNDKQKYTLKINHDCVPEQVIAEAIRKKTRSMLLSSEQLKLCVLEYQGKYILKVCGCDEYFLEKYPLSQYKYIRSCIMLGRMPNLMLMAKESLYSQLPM
In short: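 PIK3CA (157-299), 3.33 or 1 μM in 20 mM HEPES, 150 mM NaCl, 2 mM MgCl2, pH 7.3, was incubated with compound at room temperature in the dark for 15 min, 30 min, 2 h or 4 h. Linear MALDI-TOF read-out; % modification = adduct peak height over summed heights of all protein species.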

| SMILES | IC50 (pAKT in BT474 cells) [nM] | % of modification [1] | IC50 (pAKT in BT474 cells; Homo sapiens, BT-474) [nM] |
| --- | --- | --- | --- |
| C=C(F)C(=O)N1CCn2nc(-c3nc(-c4ccc5c(c4)CCN(C)C5)c4ccsc4c3-c3ccc(F)cc3OCC(F)F)cc2C1 [Compound 325] | 100 to 1000 | B (50%<percent of modification <75%) |  |
| C=CC(=O)N1CCc2ncc(-c3nc(-c4ccc5c(c4)CNC5=O)c4ccsc4c3-c3c(F)cc(F)cc3OC(C)C)cc2C1 [Compound 326] | < 100 | A (percent of modification of PIK3CA protein ≥75%) |  |
| C=CC(=O)N1CCc2ncc(-c3nc(-c4cnc5c(c4)CN(C)CC5)c4ccsc4c3-c3c(F)cc(F)cc3OC(C)C)cc2C1 [Compound 327] | < 100 | A (percent of modification of PIK3CA protein ≥75%) |  |
| C=CC(=O)N1CC[C@H](n2cc(-c3nc(-c4ccc5c(c4)CNC5=O)c4ccsc4c3-c3ccc(F)cc3OC(C)C)cn2)C1 [Compound 328] | < 100 | A (percent of modification of PIK3CA protein ≥75%) |  |
| C=CC(=O)N1CC[C@@H](n2ccc(-c3nc(-c4cnn(C)c4)c4ccsc4c3-c3ccc(F)cc3OC(C)C)n2)C1 [Compound 329] | 100 to 1000 | A (percent of modification of PIK3CA protein ≥75%) |  |
| C=CC(=O)N1CCc2ncc(-c3nc(-c4ccc(=O)n(C)c4)c4ccsc4c3-c3c(F)cc(F)cc3OC(C)C)cc2C1 [Compound 330] | < 100 | A (percent of modification of PIK3CA protein ≥75%) |  |
| C=CC(=O)N1CCn2nc(-c3nc(-c4ccc(=O)n(C)c4)nc(C)c3-c3ccc(F)cc3OC(C)C)cc2C1 [Compound 331, 5-[5-(4-fluoro-2-isopropoxy-phenyl)-4-methyl-6-(5-prop-2-enoyl-6,7-dihydro-4H-pyrazolo[1,5-a]pyrazin-2-yl)pyrimidin-2-yl]-1-methyl-pyridin-2-one] |  | A (percent of modification of PIK3CA protein ≥75%) | 1000 to 3000 |
| C=CC(=O)N1CC[C@H](n2cc(-c3nc(-c4ccc5c(c4)CNC5=O)c4ccsc4c3-c3c(F)cc(F)cc3OC(C)C)cn2)C1 [Compound 334, 5-[7-(2,4-difluoro-6-isopropoxy-phenyl)-6-[1-[(3S)-1-prop-2-enoylpyrrolidin-3-yl]pyrazol-4-yl]thieno[3,2-c]pyridin-4-yl]isoindolin-1-one] |  | A (percent of modification of PIK3CA protein ≥75%) | < 100 |
| C=CC(=O)N1CCc2ncc(-c3nc(-c4ccc(=O)n(C(F)F)c4)c4ccsc4c3-c3c(F)cc(F)cc3OC(C)C)cc2C1 [Compound 335] | < 100 | A (percent of modification of PIK3CA protein ≥75%) |  |
| C=CC(=O)N1CCc2ncc(-c3nc(-c4ccn(C)c(=O)c4)c4ccsc4c3-c3c(F)cc(F)cc3OC(C)C)cc2C1 [Compound 336] | < 100 | A (percent of modification of PIK3CA protein ≥75%) |  |
| C=CC(=O)N1CCn2nc(-c3nc(-c4ccc(=O)n(C)c4)ncc3-c3ccc(F)cc3OC(C)C)cc2C1 [Compound 337, 5-[5-(4-fluoro-2-isopropoxy-phenyl)-4-(5-prop-2-enoyl-6,7-dihydro-4H-pyrazolo [1,5-a]pyrazin-2-yl)pyrimidin-2-yl]-1-methyl-pyridin-2-one] |  | B (50%<percent of modification <75%) | > 3000 |
| C=CC(=O)N1CCc2nc(-c3nc(-c4cnn(C)c4)c4ccsc4c3-c3c(F)cc(F)cc3OC(C)C)sc2C1 [Compound 339] | < 100 | A (percent of modification of PIK3CA protein ≥75%) |  |
| C=C(F)C(=O)N1CCn2nc(-c3nc(-c4cnc5c(c4)CN(C)CC5)c4ccsc4c3-c3c(F)cc(F)cc3OC(C)C)cc2C1 [Compound 340] | < 100 | B (50%<percent of modification <75%) |  |
| C=C(F)C(=O)N1CCn2nc(-c3nc(-c4ccc5c(c4)CNC5=O)c4ccsc4c3-c3c(F)cc(F)cc3OC(C)C)cc2C1 [Compound 341] | < 100 | B (50%<percent of modification <75%) |  |
| C=C(F)C(=O)N1CCn2nc(-c3nc(-c4ccc5c(c4)CCN(C)C5)c4ccsc4c3-c3c(F)cc(F)cc3OC(C)C)cc2C1 [Compound 342] | < 100 | B (50%<percent of modification <75%) |  |
| C=CC(=O)N1CCc2nc(-c3nc(-c4cnn(CC(C)(C)O)c4)c4ccsc4c3-c3c(F)cc(F)cc3OC(C)C)sc2C1 [Compound 344] | < 100 | A (percent of modification of PIK3CA protein ≥75%) |  |
| C=CC(=O)N1CCc2ncc(-c3nc(-c4cnn(CC(C)(C)O)c4)c4ccsc4c3-c3c(F)cc(F)cc3OC(C)C)cc2C1 [Compound 345] | < 100 | A (percent of modification of PIK3CA protein ≥75%) |  |

| SMILES | IC50 (pAKT in BT474 cells) [nM] | % of modification [1] | IC50 (pAKT in BT474 cells; Homo sapiens, BT-474) [nM] |
| --- | --- | --- | --- |
| C=CC(=O)N1CCc2nc(-c3nc(-c4ccc(=O)n(C(F)F)c4)c4ccsc4c3-c3c(F)cc(F)cc3OC(C)C)sc2C1 [Compound 347] | 100 to 1000 | A (percent of modification of PIK3CA protein ≥75%) |  |
| C=CC(=O)N1CCc2nc(-c3nc(-c4ccc(=O)n(C)c4)c4ccsc4c3-c3c(F)cc(F)cc3OC(C)C)sc2C1 [Compound 348] | < 100 | A (percent of modification of PIK3CA protein ≥75%) |  |
| C=CC(=O)N1CCc2nc(-c3nc(-c4cnn(C)c4N)c4ccsc4c3-c3c(F)cc(F)cc3OC(C)C)sc2C1 [Compound 351] | 100 to 1000 | A (percent of modification of PIK3CA protein ≥75%) |  |
| C=CC(=O)N1CCc2nc(-c3nc(-c4ccn(C)c(=O)c4)c4ccsc4c3-c3c(F)cc(F)cc3OC(C)C)sc2C1 [Compound 352] | < 100 | A (percent of modification of PIK3CA protein ≥75%) |  |
| C=C(F)C(=O)N1CCn2nc(-c3nc(-c4ccc5c(c4)CNC5=O)c4ccsc4c3-c3c(F)cc(F)cc3OCC(F)F)cc2C1 [Compound 353] | 100 to 1000 | B (50%<percent of modification <75%) |  |
| C=C(F)C(=O)N1CCn2nc(-c3nc(-c4ccc5c(c4)[C@@H](O)CC5)c4ccsc4c3-c3c(F)cc(F)cc3OC(C)C)cc2C1 [Compound 354] | < 100 | B (50%<percent of modification <75%) |  |
| C=CC(=O)N1CCn2nc(-c3nc(-c4cnn(C)c4)c(Cl)cc3-c3ccc(F)cc3OCCOC)cc2C1 [Compound 355, 1-[2-[5-chloro-3-[4-fluoro-2-(2-methoxyethoxy)phenyl]-6-(1-methylpyrazol-4-yl)-2-pyridyl]-6,7-dihydro-4H-pyrazolo[1,5-a]pyrazin-5-yl]prop-2-en-1-one] |  | A (percent of modification of PIK3CA protein ≥75%) | > 3000 |
| C=C(F)C(=O)N1CCn2nc(-c3nc(-c4cnc5c(c4)CNC5=O)c4ccsc4c3-c3c(F)cc(F)cc3OC(C)C)cc2C1 [Compound 356] | < 100 | A (percent of modification of PIK3CA protein ≥75%) |  |
| C=CC(=O)N1Cc2cc(-c3nc(-c4cnn(C)c4)c4ccsc4c3-c3ccc(F)cc3OC(C)C)nn2[C@H](C)C1 [Compound 357, 1-((7R)-2-(7-(4-fluoro-2-isopropoxyphenyl)-4-(1-methyl-1H-pyrazol-4-yl)thieno[3,2-c]pyridin-6-yl)-7-methyl-6,7-dihydropyrazolo[1,5-a]pyrazin-5(4H)-yl)prop-2-en-1-one] |  | A (percent of modification of PIK3CA protein ≥75%) | < 100 |
| C=CC(=O)N1CC[C@H](n2cc(-c3nc(-c4cnn(C)c4)c4ccsc4c3-c3c(F)cc(F)cc3OC(C)C)cn2)C1 [Compound 358] | 100 to 1000 | A (percent of modification of PIK3CA protein ≥75%) |  |
| C=CC(=O)N1CCc2ncc(-c3nc(-c4ccn(C(F)F)c(=O)c4)c4ccsc4c3-c3c(F)cc(F)cc3OC(C)C)cc2C1 [Compound 359] | < 100 | A (percent of modification of PIK3CA protein ≥75%) |  |
| C=CC(=O)N1CCc2ncc(-c3nc(-c4cnn(C)c4)c(C(F)(F)F)cc3-c3ccc(F)cc3OC(C)C)cc2C1 [Compound 360, 1-[3-[3-(4-fluoro-2-isopropoxy-phenyl)-6-(1-methylpyrazol-4-yl)-5-(trifluoromethyl)-2-pyridyl]-7,8-dihydro-5H-1,6-naphthyridin-6-yl]prop-2-en-1-one] |  | B (50%<percent of modification <75%) | > 3000 |
| C=C(F)C(=O)N1CCn2nc(-c3nc(-c4ccc5c(c4)CNC5=O)c4ccsc4c3-c3ccc(Cl)cc3OC(C)C)cc2C1 [Compound 361] | < 100 | A (percent of modification of PIK3CA protein ≥75%) |  |
| C=CC(=O)N1CCc2nc(-c3nc(-c4ccn(C(F)F)c(=O)c4)c4ccsc4c3-c3c(F)cc(F)cc3OC(C)C)sc2C1 [Compound 362] | 100 to 1000 | A (percent of modification of PIK3CA protein ≥75%) |  |
| C=CC(=O)N1CCc2nc(-c3nc(-c4cnn(C)c4)c4ccsc4c3-c3c(F)cc(F)cc3OCCOC)sc2C1 [Compound 363] | < 100 | A (percent of modification of PIK3CA protein ≥75%) |  |
| C=CC(=O)N1CCc2nc(-c3nc(-c4ccc5c(c4)CNC5=O)c4ccsc4c3-c3c(F)cc(F)cc3OCCOC)sc2C1 [Compound 364] | < 100 | A (percent of modification of PIK3CA protein ≥75%) |  |
| C=CC(=O)N1CCc2nc(-c3nc(-c4cnc5c(c4)CN(C)CC5)c4ccsc4c3-c3c(F)cc(F)cc3OCCOC)sc2C1 [Compound 365] | < 100 | A (percent of modification of PIK3CA protein ≥75%) |  |
